According to US20230106592A1, “METHOD FOR TREATING CANCER USING A COMBINATION OF DNA DAMAGING AGENTS AND ATR INHIBITORS” (Vertex Pharmaceuticals Incorporated, priority 2015, published 2023):

Assay: Phase I trial, combination with carboplatin: adverse events and DLTs
Type: in vivo, human
Protocol: Pts with advanced solid tumors enrolled in 2 sequential parts.
In part A, single pt cohorts received a compound of Formula A-2 once weekly in 21-day cycles with 3+3 dose escalation cohorts being implemented if grade 2 drug-related adverse events (AEs) occurred. […] If a DLT was reported, the cohort was expanded to include 3 additional pts with subsequent dose escalation being permitted if no further DLTs occurred. Paired pre- and post-treatment biopsies from selected pts in part B were assessed for pCHK1 levels by immunohistochemistry. Models based on preclinical and clinical data were used to simulate hematologic toxicities and pCHK1 inhibition for pts treated with a compound of Formula A-2 and CP.

[1] = A-2 120 mg/m^2 + Carboplatin AUC4 (N = 3)
[2] = A-2 120 mg/m^2 + Carboplatin AUC5 (N = 3)
[3] = A-2 240 mg/m2 + Carboplatin AUC 5 (n = 3)
[4] = A-2 240 mg/m^2 + Carboplatin AUC5 (N = 3)
[5] = A-2 + Carboplatin, Total (N = 15)
[6] = A-2 + Carboplatin, Total (N = 19)

## CNCc1ccc(-c2cc(-c3nc(-c4ccc(S(=O)(=O)C(C)C)cc4)cnc3N)on2)cc1 [Compound A-2]
[1]
  Treatment related adverse event: Vomiting, All: 0
  Treatment related adverse event: Vomiting, ≥3: 0
[2]
  Treatment related adverse event: Alopecia, All: 0
  Treatment related adverse event: Alopecia, ≥3: 0
  Treatment related adverse event: Anemia, All: 2
  Treatment related adverse event: Anemia, ≥3: 0
  Treatment related adverse event: Fatigue, All: 1
  Treatment related adverse event: Fatigue, ≥3: 0
  Treatment related adverse event: Flushing, All: 1
  Treatment related adverse event: Flushing, ≥3: 1
  Treatment related adverse event: Headache, All: 0
  Treatment related adverse event: Headache, ≥3: 0
  Treatment related adverse event: Hypertension, All: 0
  Treatment related adverse event: Hypertension, ≥3: 0
  Treatment related adverse event: Nausea, All: 2
  Treatment related adverse event: Nausea, ≥3: 0
  Treatment related adverse event: Neuropathy peripheral, All: 0
  Treatment related adverse event: Neuropathy peripheral, ≥3: 0
  Treatment related adverse event: Neutropenia, All: 2
  Treatment related adverse event: Neutropenia, ≥3: 1
  Treatment related adverse event: Respiratory tract infection, All: 0
  Treatment related adverse event: Respiratory tract infection, ≥3: 0
  Treatment related adverse event: Thrombocytopenia, All: 1
  Treatment related adverse event: Thrombocytopenia, ≥3: 0
  Treatment related adverse event: Vomiting, All: 0
  Treatment related adverse event: Vomiting, ≥3: 0
[3]
  Treatment related adverse event: Alopecia, All Grades: 0 n (%)
  Treatment related adverse event: Alopecia, Grade ≥ 3: 0 n (%)
  Treatment related adverse event: Anemia, All Grades: 3 (100) n (%)
  Treatment related adverse event: Anemia, Grade ≥ 3: 0 n (%)
  Treatment related adverse event: Any Event, All Grades: 3 (100) n (%)
  Treatment related adverse event: Fatigue, Grade ≥ 3: 0 n (%)
  Treatment related adverse event: Flushing, All Grades: 1 (33.3) n (%)
  Treatment related adverse event: Flushing, Grade ≥ 3: 0 n (%)
  Treatment related adverse event: Headache, Grade ≥ 3: 0 n (%)
  Treatment related adverse event: Hypersensitivity, All Grades: 1 (33.3) n (%)
  Treatment related adverse event: Hypersensitivity, Grade ≥ 3: 0 n (%)
  Treatment related adverse event: Infusion related reaction, All Grades: 0 n (%)
  Treatment related adverse event: Infusion related reaction, Grade ≥ 3: 0 n (%)
  Treatment related adverse event: Nausea, All Grades: 3 (100) n (%)
  Treatment related adverse event: Nausea, Grade ≥ 3: 0 n (%)
  Treatment related adverse event: Neuropathy peripheral, Grade ≥ 3: 0 n (%)
  Treatment related adverse event: Neutropenia, All Grades: 3 (100) n (%)
  Treatment related adverse event: Pruritus, All Grades: 1 (33.3) n (%)
  Treatment related adverse event: Pruritus, Grade ≥ 3: 0 n (%)
  Treatment related adverse event: Thrombocytopenia, All Grades: 3 (100) n (%)
  Treatment related adverse event: Thrombocytopenia, Grade ≥ 3: 1 (33.3) n (%)
  Treatment related adverse event: Vomiting, Grade ≥ 3: 0 n (%)
[4]
  Treatment related adverse event: Alopecia, All: 0
  Treatment related adverse event: Alopecia, ≥3: 0
  Treatment related adverse event: Anemia, All: 3
  Treatment related adverse event: Anemia, ≥3: 0
  Treatment related adverse event: Fatigue, All: 2
  Treatment related adverse event: Fatigue, ≥3: 0
  Treatment related adverse event: Flushing, All: 1
  Treatment related adverse event: Flushing, ≥3: 0
  Treatment related adverse event: Headache, All: 2
  Treatment related adverse event: Headache, ≥3: 0
  Treatment related adverse event: Hypertension, All: 1
  Treatment related adverse event: Hypertension, ≥3: 1
  Treatment related adverse event: Nausea, All: 3
  Treatment related adverse event: Nausea, ≥3: 0
  Treatment related adverse event: Neuropathy peripheral, All: 2
  Treatment related adverse event: Neuropathy peripheral, ≥3: 0
  Treatment related adverse event: Neutropenia, All: 3
  Treatment related adverse event: Neutropenia, ≥3: 2
  Treatment related adverse event: Respiratory tract infection, All: 1
  Treatment related adverse event: Respiratory tract infection, ≥3: 1
  Treatment related adverse event: Thrombocytopenia, All: 3
  Treatment related adverse event: Thrombocytopenia, ≥3: 1
  Treatment related adverse event: Vomiting, All: 2
  Treatment related adverse event: Vomiting, ≥3: 0
[5]
  Treatment related adverse event: Alopecia, All: 2
  Treatment related adverse event: Alopecia, ≥3: 0
  Treatment related adverse event: Anemia, All: 9
  Treatment related adverse event: Anemia, ≥3: 0
  Treatment related adverse event: Fatigue, All: 6
  Treatment related adverse event: Fatigue, ≥3: 0
  Treatment related adverse event: Flushing, All: 3
  Treatment related adverse event: Flushing, ≥3: 1
  Treatment related adverse event: Headache, All: 2
  Treatment related adverse event: Headache, ≥3: 0
  Treatment related adverse event: Hypertension, All: 1
  Treatment related adverse event: Hypertension, ≥3: 1
  Treatment related adverse event: Nausea, All: 7
  Treatment related adverse event: Nausea, ≥3: 0
  Treatment related adverse event: Neuropathy peripheral, All: 2
  Treatment related adverse event: Neuropathy peripheral, ≥3: 0
  Treatment related adverse event: Neutropenia, All: 7
  Treatment related adverse event: Neutropenia, ≥3: 4
  Treatment related adverse event: Respiratory tract infection, All: 1
  Treatment related adverse event: Respiratory tract infection, ≥3: 1
  Treatment related adverse event: Thrombocytopenia, All: 7
  Treatment related adverse event: Thrombocytopenia, ≥3: 1
  Treatment related adverse event: Vomiting, All: 2
  Treatment related adverse event: Vomiting, ≥3: 0
[6]
  Treatment related adverse event: Alopecia, Grade ≥ 3: 0 n (%)
  Treatment related adverse event: Anemia, Grade ≥ 3: 0 n (%)
  Treatment related adverse event: Any Event, Grade ≥ 3: 5 (26.3) n (%)
  Treatment related adverse event: Fatigue, Grade ≥ 3: 0 n (%)
  Treatment related adverse event: Flushing, Grade ≥ 3: 0 n (%)
  Treatment related adverse event: Headache, Grade ≥ 3: 0 n (%)
  Treatment related adverse event: Hypersensitivity, Grade ≥ 3: 1 (5.3) n (%)
  Treatment related adverse event: Infusion related reaction, Grade ≥ 3: 0 n (%)
  Treatment related adverse event: Nausea, Grade ≥ 3: 0 n (%)
  Treatment related adverse event: Neuropathy peripheral, Grade ≥ 3: 0 n (%)
  Treatment related adverse event: Neutropenia, All Grades: 8 (42.1) n (%)
  Treatment related adverse event: Neutropenia, Grade ≥ 3: 4 (21.1) n (%)
  Treatment related adverse event: Pruritus, Grade ≥ 3: 0 n (%)
  Treatment related adverse event: Thrombocytopenia, Grade ≥ 3: 1 (5.3) n (%)
  Treatment related adverse event: Vomiting, Grade ≥ 3: 0 n (%)
Cohort 1: A-2 240 mg/m^2 + Carboplatin AUC 5 mg/mL·min, 3/3 evaluable, febrile neutropenia
  DLTs: 1 (febrile
Cohort 2: A-2 120 mg/m^2 + Carboplatin AUC 5 mg/mL·min, 3/3 evaluable, acute hypersensitivity
  DLTs: 1 (acute
Cohort 3: A-2 120 mg/m^2 + Carboplatin AUC 4 mg/mL·min, 3/3 evaluable
  DLTs: 0
Cohort 4: A-2 90 mg/m^2 + Carboplatin AUC 5 mg/mL·min, 10/10 evaluable, febrile neutropenia
  DLTs: 1 (febrile
DL1-2
  Non-DLT G3-4 AE: neutropenia: 4
DL1: Compound A-2 240 mg/m^2 + CP AUC 5 mg/mL·min (n=3)
  DLT: G4 neutropenia and fever: 1
DL2
  Non-DLT G3-4 AE: thrombocytopenia: 1
DL2: Compound A-2 120 mg/m^2 + CP AUC 5 mg/mL·min (n=3)
  DLT: G3 hypersensitivity: 1
DL3-4 (120 mg/m^2 + CP AUC 4; 90 mg/m^2 + CP AUC 5)
  G3-4 AEs: No G3-4 AEs
Part B, carboplatin day 1, Compound A-2 days 2 and 9, 14 pts
  Pts with DLT: 2 pts
Part B across the various DLs
  Grade 3/4-related AEs: 5 pts
Part B, dosage level B2
  DLT: grade 3 hypersensitivity: 1 pt
Part B, dosage levels B1 and B2
  DLT: grade 3/4 neutropenia: 2 pts
